Laboratory results from ChEMBL document CHEMBL1156829 (Proc Natl Acad Sci U S A, 2008).

Key:
Plasmodium falciparum [1] = experiment: NOVARTIS: Inhibition of Plasmodium falciparum 3D7 (drug-susceptible) proliferation in erythrocyte-based infection assay; assay type: functional, organism-based; settings: Plasmodium falciparum, 3D7
[2] = NOVARTIS: Cytotoxicity against human hepatocellular carcinoma cell line (Huh7); assay type: toxicity, cell-based, Huh-7; settings: Huh7 cells (hepatocellular carcinoma cell line)
Plasmodium falciparum [3] = experiment: NOVARTIS: Inhibition of Plasmodium falciparum W2 (drug-resistant) proliferation in erythrocyte-based infection assay; assay type: functional, organism-based; settings: Plasmodium falciparum, W2; read-out: EC50

In the case of CCCCCC(=O)N1c2ccccc2N=C2CC(c3ccc(OC)c(OC)c3)CC(O)=C2C1c1ccc(C(F)(F)F)cc1 (stereo unspecified), the EC50 (Plasmodium falciparum [1]) is reported as 107 nM, the CC50 [2] is reported as > 100000 nM and the EC50 (Plasmodium falciparum [3]) is reported as 47 nM.

With COc1ccc(C2(CNCC(O)c3cccc([N+](=O)[O-])c3)CCCC2)cc1OC (stereo unspecified) the EC50 (Plasmodium falciparum [1]) was 490 nM, the CC50 [2] was > 100000 nM and the EC50 (Plasmodium falciparum [3]) was 52.5 nM.

In the case of CCCN(CCC)CC(O)COc1ccccc1C(=O)Nc1ccccc1 (stereo unspecified), the EC50 (Plasmodium falciparum [1]) is reported as 365 nM, the CC50 [2] is reported as > 100000 nM and the EC50 (Plasmodium falciparum [3]) is reported as 51.1 nM.

In the case of CCCN(C(=O)C(=O)Nc1ccc2nc3n(c(=O)c2c1)CCCCC3)c1ccc(OCC)cc1, the EC50 (Plasmodium falciparum [1]) is reported as 89.9 nM, the CC50 [2] is reported as > 100000 nM and the EC50 (Plasmodium falciparum [3]) is reported as 50.1 nM.

With COc1cccc(-c2ccc(O)c(CNC34CC5CC(CC(C5)C3)C4)c2)n1 the EC50 (Plasmodium falciparum [1]) was 207 nM, the CC50 [2] was > 100000 nM and the EC50 (Plasmodium falciparum [3]) was 50 nM.

With CCOC(=O)C1=C(C)NC2=C(C(=O)CC(c3ccc(Cl)cc3)C2)C1c1ccc(Cl)cc1 (stereo unspecified) the EC50 (Plasmodium falciparum [1]) was 89.4 nM, the CC50 [2] was > 100000 nM and the EC50 (Plasmodium falciparum [3]) was 51.5 nM.

In the case of CCSc1nc2sc3c(c2c(=O)n1-c1ccccc1)CCN(Cc1ccccc1)C3, the EC50 (Plasmodium falciparum [1]) is reported as 85.8 nM, the CC50 [2] is reported as > 68400 nM and the EC50 (Plasmodium falciparum [3]) is reported as 34.8 nM.

In the case of NCCCC[C@H]1C(=O)Nc2ccc(O)cc2C(=O)N1C(C(=O)NCC(=O)O)c1cccnc1 (stereo partly specified), the EC50 (Plasmodium falciparum [1]) is reported as 115 nM, the CC50 [2] is reported as > 12100 nM and the EC50 (Plasmodium falciparum [3]) is reported as < 6.3 nM.

CC(CCc1ccccc1)N1CC(c2cccc([N+](=O)[O-])c2)OC1=S (stereo unspecified) showed an EC50 (Plasmodium falciparum [1]) of 307 nM, a CC50 [2] of 32800 nM and an EC50 (Plasmodium falciparum [3]) of 18 nM.

With COC(=O)C1=C(C)NC2=C(C(=O)CC(c3ccc(OC)cc3)C2)C1c1ccc(F)cc1 (stereo unspecified) the EC50 (Plasmodium falciparum [1]) was 191 nM, the CC50 [2] was > 100000 nM and the EC50 (Plasmodium falciparum [3]) was 54.7 nM.

With CC(=O)Oc1ccccc1-c1nc2cc(C)ccn2c1NC(C)(C)CC(C)(C)C the EC50 (Plasmodium falciparum [1]) was 389 nM, the CC50 [2] was > 10000 nM and the EC50 (Plasmodium falciparum [3]) was < 5.33 nM.

In the case of Nc1ccc(-c2nc3ccc(-c4nc5ccc(N)cc5[nH]4)cc3[nH]2)cc1, the EC50 (Plasmodium falciparum [1]) is reported as 120 nM, the CC50 [2] is reported as > 100000 nM and the EC50 (Plasmodium falciparum [3]) is reported as 55.6 nM.

In the case of COc1ccc(NC(=O)C2c3ccccc3C(=O)N(CC(C)C)C2c2cccs2)cc1Cl (stereo unspecified), the EC50 (Plasmodium falciparum [1]) is reported as 91.4 nM, the CC50 [2] is reported as > 100000 nM and the EC50 (Plasmodium falciparum [3]) is reported as 55.6 nM.

With COC(=O)C1=C(C)NC2=C(C(=O)CC(c3ccc(OC)c(OC)c3)C2)C1c1cccc(O)c1 (stereo unspecified) the EC50 (Plasmodium falciparum [1]) was 92 nM, the CC50 [2] was > 100000 nM and the EC50 (Plasmodium falciparum [3]) was 50 nM.

In the case of Cc1cc(NC(=O)C2c3ccccc3C(=O)N(CC(C)C)C2c2cccs2)no1 (stereo unspecified), the EC50 (Plasmodium falciparum [1]) is reported as 85.6 nM, the CC50 [2] is reported as > 100000 nM and the EC50 (Plasmodium falciparum [3]) is reported as 45.3 nM.

With CCCOC(=O)C1=C(C)NC2=C(C(=O)CC(c3ccc(OC)c(OC)c3)C2)C1c1ccc(Br)cc1 (stereo unspecified) the EC50 (Plasmodium falciparum [1]) was 37.7 nM, the CC50 [2] was > 100000 nM and the EC50 (Plasmodium falciparum [3]) was 46.9 nM.

With O=C(NCCc1nc(-c2ccncc2)n[nH]1)C12CC3CC(CC(C3)C1)C2 the EC50 (Plasmodium falciparum [1]) was > 12500 nM, the CC50 [2] was > 100000 nM and the EC50 (Plasmodium falciparum [3]) was 44.9 nM.

In the case of CCOC(=O)C1=C(CC)NC2=C(C(=O)CC(C)(C)C2)C1c1ccc(Cl)cc1Cl (stereo unspecified), the EC50 (Plasmodium falciparum [1]) is reported as 208 nM, the CC50 [2] is reported as > 100000 nM and the EC50 (Plasmodium falciparum [3]) is reported as 45.9 nM.

In the case of Cc1cc(Nc2ccc(Br)c(C)c2)n2nc(C)nc2n1, the EC50 (Plasmodium falciparum [1]) is reported as 53 nM, the CC50 [2] is reported as > 100000 nM and the EC50 (Plasmodium falciparum [3]) is reported as 45.8 nM.

In the case of C[n+]1ccc(/C=C/c2ccccc2F)c2ccccc21, the EC50 (Plasmodium falciparum [1]) is reported as 65.3 nM, the CC50 [2] is reported as > 10000 nM and the EC50 (Plasmodium falciparum [3]) is reported as < 5.24 nM.

In the case of CCOC(=O)C1=C(C)NC2=C(C(=O)CC(c3ccc(OC)cc3)C2)C1c1cccc(F)c1 (stereo unspecified), the EC50 (Plasmodium falciparum [1]) is reported as 137 nM, the CC50 [2] is reported as > 100000 nM and the EC50 (Plasmodium falciparum [3]) is reported as 50.4 nM.

For NC(=S)NN=Cc1cc([N+](=O)[O-])ccc1O, the EC50 (Plasmodium falciparum [1]) was 68.6 nM, the CC50 [2] was > 100000 nM and the EC50 (Plasmodium falciparum [3]) was 52 nM.

In the case of Cc1cccc(Nc2c3c(c(C#N)c4nc5ccccc5n24)CCC3)c1, the EC50 (Plasmodium falciparum [1]) is reported as 92.6 nM, the CC50 [2] is reported as > 100000 nM and the EC50 (Plasmodium falciparum [3]) is reported as 51.8 nM.

For OC(Cn1cnc(-c2ccccc2)c1-c1ccccc1)Cn1c2ccc(Br)cc2c2cc(Br)ccc21 (stereo unspecified), the EC50 (Plasmodium falciparum [1]) was 952 nM, the CC50 [2] was > 100000 nM and the EC50 (Plasmodium falciparum [3]) was 53.2 nM.

In the case of CCCOC(=O)C1=C(C)NC2=C(C(=O)CC(c3ccc(OC)cc3)C2)C1c1ccc([N+](=O)[O-])cc1 (stereo unspecified), the EC50 (Plasmodium falciparum [1]) is reported as 281 nM, the CC50 [2] is reported as > 100000 nM and the EC50 (Plasmodium falciparum [3]) is reported as 51.4 nM.

In the case of CC(Cc1ccccc1)NCc1ccccc1O (stereo unspecified), the EC50 (Plasmodium falciparum [1]) is reported as 525 nM, the CC50 [2] is reported as > 10000 nM and the EC50 (Plasmodium falciparum [3]) is reported as < 4.93 nM.

With CCOC(=O)C1=C(C)NC2=C(C(=O)CC(c3ccc(OC)c(OC)c3)C2)C1c1ccccc1OC (stereo unspecified) the EC50 (Plasmodium falciparum [1]) was 74.1 nM, the CC50 [2] was > 100000 nM and the EC50 (Plasmodium falciparum [3]) was 49.2 nM.
